Test results: patent US7560458B2, “Triazolopyrimidine derivatives as glycogen synthase kinase 3 inhibitors” (Janssen Pharmaceutica, N.V., priority 2003, dated 2009)

Legend:
GSK3β = GSK3β (Homo sapiens, UniProt P49841); experiment: GSK3beta assay (SPA, biotinylated phosphorylated CREB peptide, ATP-P33); format: biochemical; settings: −log IC50 (M); given as ranges (>8; 7-8; <7); read-out: pIC50 (GSK3beta) (converted)
Method: (§1) GSK3beta assays were performed at room temperature in a 100 μl reaction volume of 25 mM Tris (ph 7.4) containing 10 mM MgCl2.6H2O 1 mM DTT, 0.1 mg/ml BSA, 5% glyceol and containing 5.7 ng/μl GSK3β, 5 μM biotinylated phosphorylated CREB peptide, 1 μM APT, 0.85 μCi/ml ATP-P^33 and a suitable amount of a test compound of formula (I). After one hour, the reaction was terminated by adding 70 μl of Stop mix (0.1 mM APT, 5 mg/ml streptavidin coated PVT SPA bead pH 11.0). The beads to which the phosphorylated CREB peptide is attached were allowed to settle overnight and the radioactivity of the beads was counted in a microtiterplate scintillation counter and compared with the results obtained in a control experiment (without the presence of a test compound) in order to determine the percentage of GSK3β inhibition. The IC50 value, i.e. the concentration (M) of the test compound at which 50% of GSK3β is inhibited, was calculated from the dose response curve obtained by performing the above-described GSKK3β assay in the presence of different amounts of the test compound.

GSK3alpha = GSK3alpha (Homo sapiens, UniProt P49840); experiment: GSK3alpha assay (same as the GSK3beta assay, GSK3alpha 0.25 ng/μl); format: biochemical; settings: −log IC50 (M); given as ranges (>8; 7-8; <7); read-out: pIC50 (GSK3alpha) (converted)
GSK3alpha, sequence (P49840 whole entry, species assumed): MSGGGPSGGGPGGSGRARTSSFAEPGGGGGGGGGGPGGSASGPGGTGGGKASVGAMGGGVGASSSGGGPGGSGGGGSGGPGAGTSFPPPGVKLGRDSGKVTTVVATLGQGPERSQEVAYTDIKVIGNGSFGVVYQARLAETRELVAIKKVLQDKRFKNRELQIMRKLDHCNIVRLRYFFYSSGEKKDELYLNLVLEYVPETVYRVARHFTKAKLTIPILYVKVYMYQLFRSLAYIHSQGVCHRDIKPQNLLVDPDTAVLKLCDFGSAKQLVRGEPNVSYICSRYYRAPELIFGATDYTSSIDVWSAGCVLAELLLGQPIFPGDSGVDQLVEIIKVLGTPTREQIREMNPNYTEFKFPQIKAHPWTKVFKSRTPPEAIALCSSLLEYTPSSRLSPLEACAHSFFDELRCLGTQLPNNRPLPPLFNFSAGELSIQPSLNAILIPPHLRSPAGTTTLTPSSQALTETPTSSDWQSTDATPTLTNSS
Method: as §1
The GSK3alpha assay was performed in the same way as described above for the GSK3beta assay except for the concentration of GSK3alpha which is 0.25 ng/μl.

GSK3β, sequence (P49841 whole entry, species assumed): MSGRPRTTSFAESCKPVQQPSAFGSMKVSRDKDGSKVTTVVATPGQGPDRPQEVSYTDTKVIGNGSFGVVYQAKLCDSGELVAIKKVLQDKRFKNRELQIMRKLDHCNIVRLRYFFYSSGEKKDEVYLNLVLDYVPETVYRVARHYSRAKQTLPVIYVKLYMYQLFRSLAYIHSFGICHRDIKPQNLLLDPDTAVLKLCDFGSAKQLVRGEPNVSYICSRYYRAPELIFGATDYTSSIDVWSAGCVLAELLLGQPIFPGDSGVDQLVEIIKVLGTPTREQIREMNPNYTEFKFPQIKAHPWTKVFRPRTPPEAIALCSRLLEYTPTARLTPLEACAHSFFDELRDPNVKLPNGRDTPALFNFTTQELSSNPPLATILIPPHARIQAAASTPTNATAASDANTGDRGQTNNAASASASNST

| Compound | IC50 (GSK3β) | IC50 (GSK3alpha) |
| --- | --- | --- |
| Cn1ccnc1-c1cccc(-n2nnc3cnc(Nc4cccc(C#N)c4)nc32)c1 [Compound 4] | < 1e-08 M | 1e-08 to 1e-07 M |
| CC(=O)Nc1cccc(Nc2ncc3nnn(-c4cccc(F)c4)c3n2)c1 [Compound 11] | < 1e-08 M | < 1e-08 M |
| Nc1cccc(Nc2ncc3nnn(-c4cccc(F)c4)c3n2)c1 [Compound 12] | < 1e-08 M | 1e-08 to 1e-07 M |
| COC(=O)c1cccc(Nc2ncc3nnn(-c4cccc(F)c4)c3n2)c1 [Compound 13] | 1e-08 to 1e-07 M |  |
| Cc1cccc(Nc2ncc3nnn(-c4cccc(F)c4)c3n2)c1 [Compound 14] | 1e-08 to 1e-07 M | < 1e-08 M |
| Oc1cccc(Nc2ncc3nnn(-c4cccc(F)c4)c3n2)c1 [Compound 15] | 1e-08 M | < 1e-08 M |
| Fc1cccc(Nc2ncc3nnn(-c4cccc(F)c4)c3n2)c1 [Compound 17] | 1e-08 to 1e-07 M | < 1e-08 M |
| N#CSc1ccc(Nc2ncc3nnn(-c4cccc(F)c4)c3n2)cc1 [Compound 18] | 1e-08 to 1e-07 M | 1e-08 to 1e-07 M |
| Fc1cccc(-n2nnc3cnc(Nc4ccc(OC(F)F)cc4)nc32)c1 [Compound 19] | 1e-08 to 1e-07 M | < 1e-08 M |
| N#CCc1ccc(Nc2ncc3nnn(-c4cccc(F)c4)c3n2)cc1 [Compound 20] | 1e-08 to 1e-07 M | < 1e-08 M |
| Cc1ccc(Nc2ncc3nnn(-c4cccc(F)c4)c3n2)cc1O [Compound 21] | < 1e-08 M | < 1e-08 M |
| Fc1cccc(-n2nnc3cnc(Nc4cccc(OC(F)(F)F)c4)nc32)c1 [Compound 22] | < 1e-08 M | < 1e-08 M |
| CCOc1cccc(Nc2ncc3nnn(-c4cccc(F)c4)c3n2)c1 [Compound 23] | < 1e-08 M | < 1e-08 M |
| CNC(=O)c1cccc(Nc2ncc3nnn(-c4cccc(F)c4)c3n2)c1 [Compound 24] | < 1e-08 M | < 1e-08 M |
| O=C(O)Cc1cccc(Nc2ncc3nnn(-c4cccc(F)c4)c3n2)c1 [Compound 25] | 1e-08 to 1e-07 M | < 1e-08 M |
| O=C(O)c1cccc(Nc2ncc3nnn(-c4cccc(F)c4)c3n2)c1 [Compound 29] | 1e-08 to 1e-07 M | < 1e-08 M |
| O=C(O)c1ccc(Nc2ncc3nnn(-c4cccc(F)c4)c3n2)cc1 [Compound 30] | < 1e-08 M | < 1e-08 M |
| OCc1cccc(Nc2ncc3nnn(-c4cccc(F)c4)c3n2)c1 [Compound 31] | < 1e-08 M | < 1e-08 M |
| Fc1cccc(-n2nnc3cnc(Nc4ccc(Cl)nc4)nc32)c1 [Compound 32] | < 1e-08 M | < 1e-08 M |
| N#Cc1cccc(Nc2ncc3nnn(-c4cccc(Br)c4)c3n2)c1 [Compound 33] | < 1e-08 M | < 1e-08 M |
| N#Cc1cccc(Nc2ncc3nnn(-c4ccccc4)c3n2)c1 [Compound 34] | < 1e-08 M | < 1e-08 M |
| COc1cccc(-n2nnc3cnc(Nc4cccc(S(N)(=O)=O)c4)nc32)c1 [Compound 35] | < 1e-08 M | < 1e-08 M |
| NS(=O)(=O)c1cccc(Nc2ncc3nnn(-c4cccc(CO)c4)c3n2)c1 [Compound 36] | < 1e-08 M | < 1e-08 M |
| NS(=O)(=O)c1ccc(Nc2ncc3nnn(-c4ccccc4)c3n2)cc1 [Compound 37] | < 1e-08 M | < 1e-08 M |

The next lines start with the values.

| IC50 (GSK3β) | IC50 (GSK3alpha) | Compound |
| --- | --- | --- |
| < 1e-08 M | < 1e-08 M | NC(=O)c1cccc(Nc2ncc3nnn(-c4ccccc4)c3n2)c1 [Compound 38] |
| < 1e-08 M | < 1e-08 M | NC(=O)c1cccc(Nc2ncc3nnn(-c4cccc(C(N)=O)c4)c3n2)c1 [Compound 39] |
| < 1e-08 M | < 1e-08 M | COc1cccc(-n2nnc3cnc(Nc4cccc(NC(C)=O)c4)nc32)c1 [Compound 42] |
| < 1e-08 M | < 1e-08 M | COc1cccc(-n2nnc3cnc(Nc4cccc(C(C)O)c4)nc32)c1 (stereo not shown) [Compound 43] |
| < 1e-08 M | < 1e-08 M | CS(=O)(=O)c1cccc(Nc2ncc3nnn(-c4cccc(F)c4)c3n2)c1 [Compound 44] |
| < 1e-08 M | < 1e-08 M | CS(=O)(=O)Nc1cccc(Nc2ncc3nnn(-c4cccc(F)c4)c3n2)c1 [Compound 45] |
| < 1e-08 M | < 1e-08 M | COc1ccc(Nc2ncc3nnn(-c4ccccc4)c3n2)cn1 [Compound 47] |
| < 1e-08 M | < 1e-08 M | COc1cccc(-n2nnc3cnc(Nc4cccc(C(C)=O)c4)nc32)c1 [Compound 51] |
| < 1e-08 M | < 1e-08 M | COc1cccc(-n2nnc3cnc(Nc4cccc(NS(C)(=O)=O)c4)nc32)c1 [Compound 52] |
| < 1e-08 M | < 1e-08 M | COc1cccc(-n2nnc3cnc(Nc4cccc(S(C)(=O)=O)c4)nc32)c1 [Compound 53] |
| < 1e-08 M | < 1e-08 M | OCc1cccc(Nc2ncc3nnn(-c4cccc(CO)c4)c3n2)c1 [Compound 54] |
| < 1e-08 M | < 1e-08 M | COCc1cccc(Nc2ncc3nnn(-c4cccc(F)c4)c3n2)c1 [Compound 56] |
| < 1e-08 M | < 1e-08 M | CS(=O)(=O)Nc1cccc(Nc2ncc3nnn(-c4cccc(S(N)(=O)=O)c4)c3n2)c1 [Compound 58] |
| < 1e-08 M | < 1e-08 M | CC(=O)Nc1cccc(Nc2ncc3nnn(-c4ccccc4)c3n2)c1 [Compound 59] |
| < 1e-08 M | < 1e-08 M | CC(=O)c1cccc(Nc2ncc3nnn(-c4ccccc4)c3n2)c1 [Compound 60] |
| < 1e-08 M | < 1e-08 M | COCc1cccc(Nc2ncc3nnn(-c4ccccc4)c3n2)c1 [Compound 61] |
| < 1e-08 M | < 1e-08 M | CS(=O)(=O)Nc1cccc(Nc2ncc3nnn(-c4cccc(CO)c4)c3n2)c1 [Compound 62] |
| < 1e-08 M | < 1e-08 M | CC(=O)Nc1cccc(Nc2ncc3nnn(-c4cccc(S(N)(=O)=O)c4)c3n2)c1 [Compound 63] |
| < 1e-08 M | < 1e-08 M | CC(=O)c1cccc(Nc2ncc3nnn(-c4cccc(S(N)(=O)=O)c4)c3n2)c1 [Compound 64] |
| 1e-08 to 1e-07 M | 1e-08 to 1e-07 M | COc1cccc(-n2nnc3cnc(Nc4cccc(C(=O)O)c4)nc32)c1 [Compound 66] |
|  | 1e-08 to 1e-07 M | O=C(O)c1cccc(Nc2ncc3nnn(-c4cccc(CO)c4)c3n2)c1 [Compound 68] |
|  | 1e-08 to 1e-07 M | O=C(O)c1cc(Nc2ncc3nnn(-c4cccc(F)c4)c3n2)ccc1Cl [Compound 70] |
| 1e-08 to 1e-07 M | < 1e-08 M | O=C(O)c1cc(Nc2ncc3nnn(-c4cccc(F)c4)c3n2)ccc1O [Compound 71] |
| 1e-08 to 1e-07 M | < 1e-08 M | COc1cccc(-n2nnc3cnc(Nc4ccc(O)c(C(=O)O)c4)nc32)c1 [Compound 72] |
| < 1e-08 M | < 1e-08 M | CC(=O)NCc1cccc(Nc2ncc3nnn(-c4cccc(F)c4)c3n2)c1 [Compound 73] |
| 1e-08 M | < 1e-08 M | COC(=O)c1cccc(-n2nnc3cnc(Nc4cccc(CNC(C)=O)c4)nc32)c1 [Compound 74] |
| 1e-08 to 1e-07 M | < 1e-08 M | CC(=O)NCc1cccc(Nc2ncc3nnn(-c4ccccc4)c3n2)c1 [Compound 75] |
| < 1e-08 M | < 1e-08 M | O=S(=O)(CCO)c1cccc(Nc2ncc3nnn(-c4cccc(F)c4)c3n2)c1 [Compound 77] |
|  | 1e-08 to 1e-07 M | O=C(O)Cc1cccc(-n2nnc3cnc(Nc4cccc(C(=O)NCCO)c4)nc32)c1 [Compound 177] |
| < 1e-08 M |  | COCCOCc1cccc(-n2nnc3cnc(Nc4cccc(C#N)c4)nc32)c1 [Compound 290] |
